Article PMC8213057, “Targeting ALK2: An Open Science Approach to Developing Therapeutics for the Treatment of Diffuse Intrinsic Pontine Glioma” (Journal of Medicinal Chemistry, 2020)

Assays:
CYP2C9 = target: T1, CYP2C9 (Homo sapiens, UniProt P11712); assay: CYP inhibition assay; type: in vitro ADME; conditions: human liver microsomes
T1 construct: tissue Corning 452117; host or cells: pooled human liver microsomes (UltraPool HLM 150, mixed gender)

NEK4 = NEK4 (Homo sapiens, UniProt P51957); assay: biochemical; conditions: read-out: % enzyme activity, 1 μM; Run 1, Run 2
ULK2 = target: T2, ULK2 (Homo sapiens, UniProt Q8IYT8); assay: biochemical; conditions: read-out: % enzyme activity, 1 μM; Run 1, Run 2
T2 sequence (Q8IYT8 1-1036): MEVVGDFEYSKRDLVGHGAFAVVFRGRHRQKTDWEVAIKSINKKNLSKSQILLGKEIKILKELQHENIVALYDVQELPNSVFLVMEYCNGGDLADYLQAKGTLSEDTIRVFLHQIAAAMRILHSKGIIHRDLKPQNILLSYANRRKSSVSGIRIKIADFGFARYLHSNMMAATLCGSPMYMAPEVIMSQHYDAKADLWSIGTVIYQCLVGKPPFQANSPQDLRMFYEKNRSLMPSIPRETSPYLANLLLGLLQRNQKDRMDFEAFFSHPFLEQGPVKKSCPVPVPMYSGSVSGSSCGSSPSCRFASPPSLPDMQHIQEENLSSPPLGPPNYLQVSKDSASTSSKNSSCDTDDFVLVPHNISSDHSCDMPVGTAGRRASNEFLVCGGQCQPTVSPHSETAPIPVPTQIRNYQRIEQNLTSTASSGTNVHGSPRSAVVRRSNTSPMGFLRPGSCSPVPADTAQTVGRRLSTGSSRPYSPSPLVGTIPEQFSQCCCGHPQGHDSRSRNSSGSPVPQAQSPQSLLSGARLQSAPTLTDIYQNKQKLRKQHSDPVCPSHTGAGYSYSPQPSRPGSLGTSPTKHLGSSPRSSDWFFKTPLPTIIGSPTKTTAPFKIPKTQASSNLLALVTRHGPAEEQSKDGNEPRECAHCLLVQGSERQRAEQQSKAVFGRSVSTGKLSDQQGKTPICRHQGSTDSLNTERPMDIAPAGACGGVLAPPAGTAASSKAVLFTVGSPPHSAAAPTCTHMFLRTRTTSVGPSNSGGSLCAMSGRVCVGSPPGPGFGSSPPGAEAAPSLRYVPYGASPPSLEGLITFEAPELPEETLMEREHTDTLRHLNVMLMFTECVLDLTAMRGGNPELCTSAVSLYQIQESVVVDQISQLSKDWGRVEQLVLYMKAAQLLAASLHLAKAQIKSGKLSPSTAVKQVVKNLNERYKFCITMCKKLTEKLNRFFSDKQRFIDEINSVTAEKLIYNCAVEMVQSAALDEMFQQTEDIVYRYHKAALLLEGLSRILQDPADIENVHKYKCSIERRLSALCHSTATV

BTK = BTK (Homo sapiens, UniProt Q06187); conditions: 1 μM; Run 1, Run 2
STK16 = STK16 (Homo sapiens, UniProt O75716); conditions: 1 μM; Run 1, Run 2
ZAP70 = target: T3, ZAP70 (Homo sapiens, UniProt P43403); assay: biochemical; conditions: read-out: % enzyme activity, 1 μM; Run 1, Run 2
T3 sequence (P43403 1-619): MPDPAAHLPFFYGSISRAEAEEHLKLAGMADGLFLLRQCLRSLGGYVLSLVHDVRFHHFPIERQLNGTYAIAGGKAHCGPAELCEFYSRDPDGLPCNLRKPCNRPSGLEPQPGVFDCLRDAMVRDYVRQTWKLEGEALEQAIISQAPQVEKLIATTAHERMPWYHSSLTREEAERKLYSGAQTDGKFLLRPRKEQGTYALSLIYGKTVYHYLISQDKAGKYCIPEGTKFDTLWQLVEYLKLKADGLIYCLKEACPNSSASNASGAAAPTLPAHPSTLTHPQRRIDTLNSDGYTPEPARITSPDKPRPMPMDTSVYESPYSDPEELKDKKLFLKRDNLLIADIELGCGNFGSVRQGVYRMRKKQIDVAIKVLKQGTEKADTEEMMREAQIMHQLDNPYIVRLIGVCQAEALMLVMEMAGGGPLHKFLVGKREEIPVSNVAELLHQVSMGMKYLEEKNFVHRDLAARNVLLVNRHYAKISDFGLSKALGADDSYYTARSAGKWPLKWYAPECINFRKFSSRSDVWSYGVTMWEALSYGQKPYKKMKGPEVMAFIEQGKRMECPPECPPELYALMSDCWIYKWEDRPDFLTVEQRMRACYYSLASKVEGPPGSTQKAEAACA

PLK4/SAK = target: T4, PLK4/SAK (Homo sapiens, UniProt O00444); conditions: 1 μM; Run 1, Run 2
T4 sequence (O00444 1-970): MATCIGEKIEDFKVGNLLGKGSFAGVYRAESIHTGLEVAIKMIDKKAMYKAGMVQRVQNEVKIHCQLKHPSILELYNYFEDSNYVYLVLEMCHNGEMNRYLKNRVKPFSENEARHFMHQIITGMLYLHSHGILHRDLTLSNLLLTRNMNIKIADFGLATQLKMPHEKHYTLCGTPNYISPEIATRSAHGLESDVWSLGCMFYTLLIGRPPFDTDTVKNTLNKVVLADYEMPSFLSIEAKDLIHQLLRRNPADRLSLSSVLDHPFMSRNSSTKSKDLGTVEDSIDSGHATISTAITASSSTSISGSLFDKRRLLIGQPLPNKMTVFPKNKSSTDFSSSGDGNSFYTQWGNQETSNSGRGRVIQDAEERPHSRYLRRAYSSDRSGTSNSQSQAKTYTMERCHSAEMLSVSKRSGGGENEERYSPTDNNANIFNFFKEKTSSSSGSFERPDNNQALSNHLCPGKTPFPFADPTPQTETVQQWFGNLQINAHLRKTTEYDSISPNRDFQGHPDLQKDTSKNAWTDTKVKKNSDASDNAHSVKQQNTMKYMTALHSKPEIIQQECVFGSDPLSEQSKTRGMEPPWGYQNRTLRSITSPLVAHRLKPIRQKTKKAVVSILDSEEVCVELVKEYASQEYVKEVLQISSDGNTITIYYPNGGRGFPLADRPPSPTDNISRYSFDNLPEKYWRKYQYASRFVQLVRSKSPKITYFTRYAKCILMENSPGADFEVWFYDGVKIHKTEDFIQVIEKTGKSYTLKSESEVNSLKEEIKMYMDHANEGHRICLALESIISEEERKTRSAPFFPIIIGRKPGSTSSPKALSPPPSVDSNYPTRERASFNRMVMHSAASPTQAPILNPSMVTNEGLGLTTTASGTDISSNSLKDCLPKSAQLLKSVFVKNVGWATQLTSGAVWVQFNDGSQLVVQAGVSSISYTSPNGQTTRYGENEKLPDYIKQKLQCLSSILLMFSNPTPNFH

Sequence of BTK (Q06187 whole entry): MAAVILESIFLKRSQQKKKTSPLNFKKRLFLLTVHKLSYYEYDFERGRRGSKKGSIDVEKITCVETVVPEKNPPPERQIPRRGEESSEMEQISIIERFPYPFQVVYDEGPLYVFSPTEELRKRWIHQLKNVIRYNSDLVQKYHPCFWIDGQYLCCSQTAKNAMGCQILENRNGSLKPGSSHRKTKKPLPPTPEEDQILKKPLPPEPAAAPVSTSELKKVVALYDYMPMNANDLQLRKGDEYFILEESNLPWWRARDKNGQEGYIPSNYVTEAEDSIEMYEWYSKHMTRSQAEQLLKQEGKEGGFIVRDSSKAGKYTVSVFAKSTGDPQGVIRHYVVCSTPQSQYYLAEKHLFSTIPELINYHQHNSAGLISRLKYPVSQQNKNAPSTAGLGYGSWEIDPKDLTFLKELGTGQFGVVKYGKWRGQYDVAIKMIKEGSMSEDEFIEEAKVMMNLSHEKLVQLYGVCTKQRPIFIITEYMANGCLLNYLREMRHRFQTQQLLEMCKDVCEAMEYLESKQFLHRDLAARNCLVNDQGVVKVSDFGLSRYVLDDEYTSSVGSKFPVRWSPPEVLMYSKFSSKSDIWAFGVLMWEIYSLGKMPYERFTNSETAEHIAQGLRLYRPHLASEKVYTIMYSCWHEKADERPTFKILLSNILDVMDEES
Sequence of NEK4 (P51957 whole entry): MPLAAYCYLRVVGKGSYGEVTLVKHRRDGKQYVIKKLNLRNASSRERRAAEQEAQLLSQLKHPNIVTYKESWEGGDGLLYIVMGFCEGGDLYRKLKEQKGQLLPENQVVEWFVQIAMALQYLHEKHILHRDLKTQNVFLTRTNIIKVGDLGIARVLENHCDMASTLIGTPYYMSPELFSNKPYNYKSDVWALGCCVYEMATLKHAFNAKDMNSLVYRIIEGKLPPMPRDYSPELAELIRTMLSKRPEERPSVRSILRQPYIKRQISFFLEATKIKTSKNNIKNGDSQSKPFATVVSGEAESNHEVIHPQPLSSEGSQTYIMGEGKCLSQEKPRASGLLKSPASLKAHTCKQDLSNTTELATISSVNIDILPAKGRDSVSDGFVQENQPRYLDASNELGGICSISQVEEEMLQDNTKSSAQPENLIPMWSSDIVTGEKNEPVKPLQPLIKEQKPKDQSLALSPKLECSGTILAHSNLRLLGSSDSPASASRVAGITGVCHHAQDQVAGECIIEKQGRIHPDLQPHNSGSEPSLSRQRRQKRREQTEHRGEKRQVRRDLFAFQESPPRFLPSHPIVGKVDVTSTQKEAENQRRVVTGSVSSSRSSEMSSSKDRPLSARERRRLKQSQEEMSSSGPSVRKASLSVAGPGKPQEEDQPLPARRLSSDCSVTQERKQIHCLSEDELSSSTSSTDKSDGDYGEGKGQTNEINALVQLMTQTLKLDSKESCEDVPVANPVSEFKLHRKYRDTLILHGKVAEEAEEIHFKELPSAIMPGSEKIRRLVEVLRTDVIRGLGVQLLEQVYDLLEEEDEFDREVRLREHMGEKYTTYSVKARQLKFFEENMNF
T1 sequence (P11712 whole entry): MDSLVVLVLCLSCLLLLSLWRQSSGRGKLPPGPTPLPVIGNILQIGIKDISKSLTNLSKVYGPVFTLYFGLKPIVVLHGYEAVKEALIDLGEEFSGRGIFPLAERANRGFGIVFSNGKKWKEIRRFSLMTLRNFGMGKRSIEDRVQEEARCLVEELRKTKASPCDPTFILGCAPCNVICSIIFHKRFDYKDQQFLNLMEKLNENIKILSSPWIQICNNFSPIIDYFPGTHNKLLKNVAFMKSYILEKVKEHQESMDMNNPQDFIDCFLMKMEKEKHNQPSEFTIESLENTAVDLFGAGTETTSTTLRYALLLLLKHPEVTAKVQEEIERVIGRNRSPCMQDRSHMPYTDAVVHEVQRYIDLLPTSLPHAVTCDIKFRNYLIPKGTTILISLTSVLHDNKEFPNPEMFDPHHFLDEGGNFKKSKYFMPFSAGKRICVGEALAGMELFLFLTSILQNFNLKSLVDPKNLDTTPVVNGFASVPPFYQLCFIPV
Sequence of STK16 (O75716 whole entry): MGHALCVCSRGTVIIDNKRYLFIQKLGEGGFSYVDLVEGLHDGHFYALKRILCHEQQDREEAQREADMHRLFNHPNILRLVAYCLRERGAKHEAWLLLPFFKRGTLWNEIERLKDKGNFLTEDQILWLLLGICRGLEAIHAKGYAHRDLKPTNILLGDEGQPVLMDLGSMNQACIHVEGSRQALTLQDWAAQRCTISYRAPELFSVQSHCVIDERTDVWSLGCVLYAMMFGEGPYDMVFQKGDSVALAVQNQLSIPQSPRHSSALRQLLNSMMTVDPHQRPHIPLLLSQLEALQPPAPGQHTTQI

SMILES | IC50 (CYP2C9) | remaining activity at 1 µM (NEK4) | remaining activity at 1 µM (ULK2) | % enzyme activity (BTK) | % enzyme activity (STK16) | remaining activity at 1 µM (ZAP70) | % enzyme activity (PLK4/SAK)
COc1cc(-c2cncc(-c3ccc(N4CCN(C)CC4)cc3)c2C)cc(F)c1C(N)=O [Compound 26a, 2-Fluoro-6-methoxy-4-(4-methyl-5-(4-(4-methylpiperazin-1-yl)phenyl)pyridin-3-yl)benzamide] | > 50 µM | 98.5% | 73.7% | 94.35% | 103.69% | 96.2% | 93.32%
COc1cc(-c2cncc(-c3ccc(N4C[C@@H](C)N(C)[C@@H](C)C4)cc3)c2C)cc(F)c1C(N)=O [Compound 26c, 2-Fluoro-6-methoxy-4-(4-methyl-5-(4-((3R,5S)-3,4,5-trimethylpiperazin-1-yl)phenyl)pyridin-3-yl)benzamide] | > 50 µM | 98% | 85.2% | 94.07% | 99.45% | 98.7% | 98.79%
